Experimental data reported in PubChem BioAssay (NCI).
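How tested: cells in 96-well plates exposed to compound for 48 hours at five concentrations. GI50: concentration for 50% inhibition of growth. TGI: concentration producing complete growth inhibition.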

Key:
Experiment in all cases: NCI tumour cell line growth inhibition, 48 h
[1] = test system: DU-145 prostate
[2] = test system: MDA-N
[3] = test system: HS 578T breast
[4] = test system: MDA-MB-231 breast
[5] = test system: OVCAR-4 ovarian
[6] = test system: EKVX NSCLC
[7] = test system: SF-268 CNS
[8] = test system: SNB-75 CNS
[9] = test system: NCI/ADR-RES ovarian
[10] = test system: HT29 colon

| SMILES | TGI [1] | TGI [2] | TGI [3] | TGI [4] | TGI [5] | TGI [6] | TGI [7] | TGI [8] | TGI [9] | TGI [10] | GI50 [1] | GI50 [10] | GI50 [3] | GI50 [4] | GI50 [5] | GI50 [6] | GI50 [7] | GI50 [8] | GI50 [9] |
| --- | --- | --- | --- | --- | --- | --- | --- | --- | --- | --- | --- | --- | --- | --- | --- | --- | --- | --- | --- |
| CC(CSc1nc2c(c(=N)n1-c1ccccc1)c(=S)n(-c1ccccc1)c(=S)n2-c1ccccc1)CN(C)C (stereo unspecified) | 3.03 µM | 3.76 µM | > 28.7 µM | 3.46 µM | 3.2 µM | 3.12 µM | 3.24 µM | 3.41 µM | 11.8 µM | – | – | – | – | – | – | – | – | – | – |
| COc1cc(/C=C2\C(=O)N(c3ccc(Cl)cc3)C(c3ccccc3)S2(=O)=O)cc(OC)c1OC (stereo unspecified) | > 100 µM | 20.1 µM | > 100 µM | > 100 µM | > 100 µM | > 100 µM | > 100 µM | > 100 µM | > 100 µM | > 100 µM | – | – | – | – | – | – | – | – | – |
| CCOC(=O)/C(=C/c1cn(C(C)=O)c2ccccc12)P(=O)(OC)OC | > 100 µM | – | > 100 µM | > 100 µM | > 100 µM | – | – | 60.1 µM | > 100 µM | > 100 µM | – | – | – | – | – | – | – | – | – |
| COc1ccc(C2CC(c3cccc(Nc4ccncc4)c3)=NN2c2ccccc2)cc1 (stereo unspecified) | 6.51 µM | – | 3.87 µM | 3.04 µM | 3.62 µM | 10.2 µM | 9.98 µM | 5.23 µM | 3.46 µM | 6.87 µM | 2.57 µM | 2.47 µM | 1.82 µM | 1.62 µM | 1.79 µM | 2.73 µM | 2.91 µM | 1.55 µM | 1.74 µM |
| CN(C)CCCNC(=O)N/N=C/c1ccccn1 | > 10 µM | > 10 µM | > 10 µM | > 10 µM | > 10 µM | > 10 µM | > 10 µM | > 10 µM | > 10 µM | > 10 µM | – | – | – | – | – | – | – | – | – |
| COc1ccc(C=C2C(C)=NN(c3cccc(Cl)c3)C23C(Cl)C(=O)N3c2nc3ccccc3s2)cc1 (stereo unspecified) | 33 µM | 44.6 µM | 74.1 µM | 51.5 µM | 93.5 µM | > 100 µM | 78.3 µM | – | 85.7 µM | 24.4 µM | – | – | – | – | – | – | – | – | – |
| O=C(CN1CCCC1)Nc1ccc2c(c1)C1Oc3ccccc3CC1CO2 (stereo unspecified) | > 100 µM | 88.2 µM | – | 75.7 µM | – | > 100 µM | > 100 µM | – | > 100 µM | – | – | – | – | – | – | – | – | – | – |
| COc1cc2c(cc1OCCN1CCN(CCOc3cc4c(cc3OC)C(=O)N3CCC[C@H]3C=N4)CC1)N=C[C@@H]1CCCN1C2=O | > 100 µM | – | > 100 µM | 54.5 µM | > 100 µM | > 100 µM | > 100 µM | > 100 µM | > 100 µM | > 100 µM | – | – | – | – | – | – | – | – | – |
| CCOC(=O)CC1C(C(=O)OCC)=Cn2c([nH]c3cccc4cccc2c43)=C1C(=O)OCC (stereo unspecified) | > 100 µM | > 100 µM | – | – | > 100 µM | > 100 µM | – | > 100 µM | > 100 µM | > 100 µM | – | – | – | – | – | – | – | – | – |
| CC(=O)CCN1CC2CN=NC2(C#N)C1 (stereo unspecified) | > 100 µM | > 100 µM | > 95.7 µM | > 100 µM | > 100 µM | > 100 µM | > 100 µM | > 100 µM | > 100 µM | > 100 µM | – | – | – | – | – | – | – | – | – |
| COc1cc2c(cc1OC)C(C1CC1)ON(C)CC2 (stereo unspecified) | > 100 µM | > 100 µM | > 100 µM | > 100 µM | > 100 µM | > 100 µM | > 100 µM | > 100 µM | > 100 µM | > 100 µM | – | – | – | – | – | – | – | – | – |
| Cc1cc(C)c(C2=NO[C@@H]3[C@H]2C(=O)C=C2N(Cc4ccccc4)CCO[C@@]23O)c(C)c1 | – | – | – | – | > 100 µM | > 100 µM | > 100 µM | > 100 µM | > 100 µM | > 100 µM | – | – | – | – | – | – | – | – | – |
| Nc1ncnc2c1ncn2CCCNO | > 100 µM | > 100 µM | > 100 µM | > 100 µM | > 100 µM | > 100 µM | > 100 µM | > 100 µM | > 100 µM | > 100 µM | – | – | – | – | – | – | – | – | – |
| Nc1ccc2c3c1cccc3c(=O)n1c3ccc(Cc4ccc5c(c4)nc4c6ccc(N)c7cccc(c(=O)n54)c76)cc3nc21 | > 100 µM | > 100 µM | – | > 100 µM | > 100 µM | > 100 µM | – | > 100 µM | > 100 µM | > 100 µM | – | – | – | – | – | – | – | – | – |
| C=C(C)C1CCC2(C)C1CCC1(C)C2CCC2C3(C)C4OC(OC4=O)C(C)(C)C3CCC21C (stereo unspecified) | > 100 µM | > 100 µM | > 100 µM | > 100 µM | – | > 100 µM | > 100 µM | > 100 µM | > 100 µM | > 100 µM | – | – | – | – | – | – | – | – | – |
| C[C@]12CC[C@H]3[C@@H](CCC4=C/C(=N/OCCN5CCCCC5)CC[C@@]43C)[C@@H]1CC[C@@H]2O | 63.5 µM | 34.5 µM | – | 50.6 µM | 58.9 µM | > 100 µM | – | 22.4 µM | 54.4 µM | 15.2 µM | – | – | – | – | – | – | – | – | – |
| CN(C)c1ccc(/C=C2\N=C(c3ccccc3)N(c3nc4ccc(Sc5ccccc5)cc4[nH]3)C2=O)cc1 | > 100 µM | – | > 100 µM | > 100 µM | > 100 µM | > 100 µM | > 100 µM | > 100 µM | 85.3 µM | > 100 µM | – | – | – | – | – | – | – | – | – |
| N=C(N)c1ccc(N=Nc2c(O)c(C(=O)Nc3ccccc3)cc3ccccc23)cc1 | > 100 µM | > 100 µM | > 85.5 µM | 22.4 µM | 33.1 µM | 41.9 µM | 55.4 µM | 52.2 µM | > 100 µM | 42.4 µM | – | – | – | – | – | – | – | – | – |
| CC(C)C(Nc1c2ccccc2[n+](C)c2ccccc12)C(=O)O (stereo unspecified) | – | – | – | – | > 100 µM | > 100 µM | > 100 µM | > 100 µM | – | > 100 µM | – | – | – | – | – | – | – | – | – |
| COc1ccccc1-c1cc(=O)c2cccnc2[nH]1 | > 100 µM | 56.7 µM | > 100 µM | > 100 µM | > 100 µM | > 100 µM | > 100 µM | – | > 100 µM | > 100 µM | – | – | – | – | – | – | – | – | – |
| Cc1cc(S(=O)(=O)NC2=NCc3c(F)cccc3N2)c(S)cc1Cl | > 100 µM | > 100 µM | > 100 µM | > 100 µM | > 100 µM | > 100 µM | > 100 µM | > 100 µM | > 100 µM | – | – | – | – | – | – | – | – | – | – |
| Oc1ccccc1/C=N/c1nc(-c2ccccc2)cs1 | > 100 µM | – | > 100 µM | > 100 µM | > 100 µM | > 100 µM | > 100 µM | > 100 µM | > 100 µM | > 100 µM | 77.5 µM | 58.2 µM | 39 µM | 20 µM | 33.7 µM | > 100 µM | 81.1 µM | > 100 µM | > 100 µM |
